Data on one molecule can be found in patent US10995068B2, “Synthetic sphingolipid-like molecules, drugs, methods of their synthesis and methods of treatment” (The Regents of the University of California, priority 2015, dated 2021).

The target of this assay is T1, PIKfyve (Homo sapiens, UniProt Q9Y2I7).
T1 construct: made in house; host or cells: HEK293T cells
The assay is described as follows: PIKfyve in vitro kinase assay. The assay is classed as biochemical. The conditions noted are these: FLAG-PIKfyve. The source says: In certain embodiments of the invention, sphingolipid-like molecules mis-localize PIKfyve preventing its association with TRMPL1 and inducing vacuolation, instead of inhibiting PIKfyve kinase activity. While PIKfyve localized to the limiting membrane of YM201636-induced vacuoles as expected, PIKfyve was present in clumps between vacuoles in FTY720-treated cells (FIGS. 57C and 56F).
PIKfyve in vitro kinase assay. FLAG-PIKfyve was expressed in HEK293T cells, purified with FLAG-beads, and eluted with FLAG peptides. PI3P and phosphatidylserine (C16) liposomes were generated by sonication in 2× lipid mixture buffer [40 mM Tris-HCl (pH 7.4), 200 mM NaCl, 1 mM EGTA] with or without FTY720. FLAG-PIKfyve and lipid mixtures were incubated with Mg^2+-ATP solution [6.5 mM HEPES (pH 7.3), 2.5 mM MnCl2, 10 mM MgCl2, 1 mM β-glycerophosphate, 0.1 mM ATP and [^32P]-γ-ATP] for 15 min at RT. The reaction was stopped by adding 4 M HCl, and phosphoinositides were extracted with methanol/chloroform (1:1). Phosphoinositides were spotted on silica thin-layer chromatography plates and separated with 2 M acetic acid/1-propanol (35:65). Membranes were dried, exposed to a Phospho Imager, and the counts from PI(3,5)P2 spots quantified with ImageQuant.

T1 sequence (Q9Y2I7 whole entry, species assumed): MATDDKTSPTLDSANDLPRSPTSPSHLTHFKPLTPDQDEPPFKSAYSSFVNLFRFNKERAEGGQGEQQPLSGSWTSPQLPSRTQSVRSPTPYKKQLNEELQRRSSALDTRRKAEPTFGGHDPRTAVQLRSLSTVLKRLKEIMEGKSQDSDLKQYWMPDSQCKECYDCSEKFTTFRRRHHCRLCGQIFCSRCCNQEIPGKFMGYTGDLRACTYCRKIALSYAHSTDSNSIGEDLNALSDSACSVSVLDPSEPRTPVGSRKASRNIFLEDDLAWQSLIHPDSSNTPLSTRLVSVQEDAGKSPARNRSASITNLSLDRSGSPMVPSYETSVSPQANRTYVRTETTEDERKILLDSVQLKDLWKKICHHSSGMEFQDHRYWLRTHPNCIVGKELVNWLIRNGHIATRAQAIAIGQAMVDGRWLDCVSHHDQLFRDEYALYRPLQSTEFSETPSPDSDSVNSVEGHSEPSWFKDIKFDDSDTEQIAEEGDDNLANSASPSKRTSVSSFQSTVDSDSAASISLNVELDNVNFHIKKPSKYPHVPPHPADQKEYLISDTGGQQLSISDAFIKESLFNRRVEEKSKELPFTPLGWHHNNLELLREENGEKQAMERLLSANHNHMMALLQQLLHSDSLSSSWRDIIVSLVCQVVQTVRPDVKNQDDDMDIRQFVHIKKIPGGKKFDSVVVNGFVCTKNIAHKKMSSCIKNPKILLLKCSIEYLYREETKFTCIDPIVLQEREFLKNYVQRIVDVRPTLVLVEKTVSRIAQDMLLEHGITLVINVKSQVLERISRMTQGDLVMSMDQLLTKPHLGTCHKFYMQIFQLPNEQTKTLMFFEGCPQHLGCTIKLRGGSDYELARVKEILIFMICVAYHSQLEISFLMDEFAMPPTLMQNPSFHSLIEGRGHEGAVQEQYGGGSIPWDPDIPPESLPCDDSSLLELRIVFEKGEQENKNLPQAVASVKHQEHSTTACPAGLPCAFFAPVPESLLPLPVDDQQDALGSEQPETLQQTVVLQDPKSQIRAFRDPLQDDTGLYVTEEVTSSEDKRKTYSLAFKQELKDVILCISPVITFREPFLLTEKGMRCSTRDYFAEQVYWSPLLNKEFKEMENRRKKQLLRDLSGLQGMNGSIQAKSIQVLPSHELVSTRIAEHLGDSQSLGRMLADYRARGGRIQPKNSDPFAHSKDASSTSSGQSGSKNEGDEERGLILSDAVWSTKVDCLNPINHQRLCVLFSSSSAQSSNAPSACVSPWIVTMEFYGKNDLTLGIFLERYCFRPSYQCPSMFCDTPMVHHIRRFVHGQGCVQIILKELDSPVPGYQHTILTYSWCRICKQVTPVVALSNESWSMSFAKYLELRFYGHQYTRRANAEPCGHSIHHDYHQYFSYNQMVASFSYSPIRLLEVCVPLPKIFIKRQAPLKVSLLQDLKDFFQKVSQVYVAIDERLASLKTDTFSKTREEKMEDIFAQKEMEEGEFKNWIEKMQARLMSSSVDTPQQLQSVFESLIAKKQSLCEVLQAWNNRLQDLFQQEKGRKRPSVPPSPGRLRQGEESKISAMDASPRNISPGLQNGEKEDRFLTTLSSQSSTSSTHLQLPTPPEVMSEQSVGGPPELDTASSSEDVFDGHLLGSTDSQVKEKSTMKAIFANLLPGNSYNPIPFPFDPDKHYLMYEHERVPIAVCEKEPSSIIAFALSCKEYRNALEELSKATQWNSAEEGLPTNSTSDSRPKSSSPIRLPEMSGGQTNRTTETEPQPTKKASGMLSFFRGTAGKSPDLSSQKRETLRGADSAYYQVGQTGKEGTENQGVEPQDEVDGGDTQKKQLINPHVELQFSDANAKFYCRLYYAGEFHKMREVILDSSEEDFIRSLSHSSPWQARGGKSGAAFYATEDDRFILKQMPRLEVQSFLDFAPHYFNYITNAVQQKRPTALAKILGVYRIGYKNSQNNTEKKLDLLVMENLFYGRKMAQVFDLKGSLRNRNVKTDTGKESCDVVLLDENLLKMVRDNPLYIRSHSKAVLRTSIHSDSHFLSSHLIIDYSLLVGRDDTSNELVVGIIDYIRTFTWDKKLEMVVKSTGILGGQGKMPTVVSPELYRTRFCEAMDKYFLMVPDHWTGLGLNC

Turning to `CCCCCCCCc1ccc(CCC(N)(CO)CO)cc1.Cl` [FTY720, 2-Amino-2-[2-(4-octylphenyl)ethyl]propane 1,3-diol hydrochloride, reference compound], the PIKfyve kinase activity result was “did not inhibit PIKfyve kinase activity”.
